# From PubChem BioAssay (NCI)
#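 Step 1: Grow cells in 96-well plates. Step 2: Expose to compound for 48 hours at 5 concentrations. Step 3: Interpolate endpoints linearly; if unreached, use highest concentration. Here, GI50 denotes the concentration required for 50% inhibition of growth. TGI marks complete inhibition of growth.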
# Tests used:
# Assay in all cases: NCI tumour cell line growth inhibition, 48 h
# [1] = tested on: HL-60(TB) leukemia
# [2] = tested on: HOP-18 NSCLC
# [3] = tested on: LXFL 529 NSCLC
# [4] = tested on: RPMI-8226 leukemia
# [5] = tested on: XF 498 CNS
# [6] = tested on: HCC-2998 colon
# [7] = tested on: M14 melanoma
# [8] = tested on: NCI-H23 lung
# [9] = tested on: OVCAR-5 ovarian
# [10] = tested on: SK-MEL-5 melanoma
# [11] = tested on: SW-620 colon
# [12] = tested on: UACC-62 melanoma
# [13] = tested on: NCI-H522 lung
# [14] = tested on: HCT-116 colon
smiles,measurement,setting,value
COC(=O)C1c2cc3c(c(O)c2C(O)CC1(C)O)C(=O)c1c(O)cc2c(c1C3=O)OC1OC2(C)C(O)C(N(C)C)C1O (configuration not stated),TGI,[1],> 24.9 µM
same,TGI,[2],> 100 µM
same,TGI,[3],> 100 µM
same,TGI,[4],> 100 µM
same,TGI,[5],> 100 µM
CCN(CC)CCO[Si](OCCN(CC)CC)(OCCN(CC)CC)OCCN(CC)CC,TGI,[6],> 100 µM
same,TGI,[7],> 100 µM
same,TGI,[8],> 100 µM
same,TGI,[9],> 100 µM
same,TGI,[10],> 100 µM
same,TGI,[11],> 100 µM
same,TGI,[12],> 100 µM
same,TGI,[5],> 100 µM
CCOC(=O)Cn1c(=O)c(C)cn(COCCO)c1=O,TGI,[6],> 100 µM
same,TGI,[1],> 100 µM
same,TGI,[7],> 100 µM
same,TGI,[8],> 100 µM
same,TGI,[13],> 100 µM
same,TGI,[9],> 100 µM
same,TGI,[4],> 100 µM
same,TGI,[10],> 100 µM
same,TGI,[11],> 100 µM
CCOC(C)OC1CC(n2cc(C)c(=O)[nH]c2=O)OC1CO (configuration not stated),TGI,[6],> 100 µM
same,TGI,[14],> 100 µM
same,TGI,[1],> 100 µM
same,TGI,[2],> 100 µM
same,TGI,[3],> 100 µM
same,TGI,[7],> 100 µM
same,TGI,[8],> 100 µM
same,TGI,[13],> 100 µM
same,TGI,[9],> 100 µM
same,TGI,[4],> 100 µM
same,TGI,[11],> 100 µM
same,TGI,[5],> 100 µM
O=C(CCC1CCCCN1)Nc1ccc2c(c1)C(=O)c1ccc(NC(=O)CCN3CCCCC3)cc1C2=O (configuration not stated),TGI,[14],4.96 µM
same,TGI,[2],9.77 µM
same,TGI,[3],2.7 µM
same,TGI,[7],2.8 µM
same,TGI,[8],5.27 µM
same,TGI,[9],11.2 µM
same,TGI,[10],3.27 µM
CC1OC(=O)C(C(C)C)NC(=O)C(C(C)C)OC(=O)C(C(C)C)NC(=O)C(C)OC(=O)C(C(C)C)NC(=O)C(C(C)C)OC(=O)C(C(C)C)NC(=O)C(C)OC(=O)C(C(C)C)NC(=O)C(C(C)C)OC(=O)C(C(C)C)NC1=O (configuration not stated),GI50,[6],< 0.0001 µM
same,TGI,[6],1.29 µM
same,TGI,[14],2.91 µM
same,GI50,[1],< 0.0001 µM
same,TGI,[2],0.0539 µM
same,GI50,[8],< 0.0001 µM
same,TGI,[8],0.0503 µM
same,GI50,[13],< 0.0001 µM
same,TGI,[13],< 0.0001 µM
same,TGI,[4],0.0158 µM
same,GI50,[11],< 0.0001 µM
same,TGI,[11],4.85 µM
same,GI50,[12],< 0.0001 µM
same,TGI,[12],5.58 µM
CN1CN(C(=O)N2CN(C)C(=O)N(C)C2)CN(C)C1=O,TGI,[6],> 100 µM
same,TGI,[14],> 100 µM
same,TGI,[1],> 100 µM
same,TGI,[2],> 100 µM
same,TGI,[3],> 100 µM
same,TGI,[7],> 100 µM
same,TGI,[13],> 100 µM
same,TGI,[9],> 100 µM
same,TGI,[4],> 100 µM
same,TGI,[11],> 100 µM
same,TGI,[12],> 100 µM
same,TGI,[5],> 100 µM
